The results in this text go back to patent publication US7629308B2, “Methods relating to muscle selective calcineurin interacting protein (MCIP)” (Board of Regents, The University of Texas System, priority 2000, dated 2009).

Where “and” joins values, the source holds several entries; their conditions need not be identical. Equal entries are not always repeated.

The subject of test [1] is cardiac hypertrophy. The test can be described thus: Cardiac hypertrophy after isoproterenol infusion or wheel running exercise. The format is in vivo, mouse. As for the experimental part: Intact animal studies: In addition to the genetic cross to α-MHC-CnA* animals, α-MHC-hMCIP1 transgenic mice and wild-type littermates were subjected to two independent stimuli known to provoke cardiac hypertrophy. Twelve-week old and 28-week old male mice were surgically implanted with a subcutaneous mini-osmotic pump (Alzet model 2001) that released isoproterenol in 0.9% NaCl at a rate of 28 mg per hour per […] of body weight over a seven day period. Control pumps delivered a 0.9% NaCl solution. Hearts were harvested on day eight. The heart body weight ratio (htw/bw) of isoproterenol-treated, animals were compared to the mean htw/bw ratio of age matched saline-treated animals of the same genotype. For exercise-induced hypertrophy, 28-week old male animals were placed in individual cages where they had free access to a running wheel. The number of revolutions was monitored continuously for 28 days. The animals ran an average of 3 to 5 kilometers a day. The heart body weight ratios (htw/bw) of the exercised animals were compared to the mean htw/bw ratios of age-matched sedentary animals of the same genotype. A Wilcoxon rank sum test was used to determine statistically significant differences among treatment groups (p<0.05). All animal protocols were reviewed and approved by the appropriate institutional review boards.

Test [2] deals with calcineurin. The test can be described thus: Luciferase reporter assays of calcineurin-dependent transcription in C2C12 cells. Type of test: cell-based, mouse. The text has this: (§1) GST-MCIP1 fusions were expressed from the bacterial expression plasmid pGEX-CS (T. D. Parks, et al. 1994). Luciferase reporter plasmids, Mb-luc and IL-2-luc, were constructed in pGL3 (Promega) by inserting promoter/enhancer regions from genes encoding human myoglobin (Chin et al., 1998) or IL-2 (Clipstone et al., 1992), respectively. In addition, a synthetic enhancer consisting of three copies of a high affinity MEF2 binding sequence from the desmin promoter (Naya et al., 2000) was linked to a minimal promoter (hsp68) and inserted into pGL3 yielding the des-MEF-luc reporter. The β-galactosidase reporter plasmid pCMV-lacZ (J. Grayson, et al. 1998), and expression vectors encoding constitutively active forms of NFAT (Molkentin et al., 1998), calcineurin (CnA*) (Chin et al., 1998, O'Keefe et al., 1992), or calmodulin dependent protein kinase type IV (CaMKIV) (Ho et al., 1996), were previously described. The identity of plasmid constructions was confirmed by restriction mapping and partial DNA sequencing.
(§2) Myoblasts were harvested 24 h after transfection.
Cell culture studies: C2C12 myoblasts were maintained and transfected as previously described (Rothermel et al., 2000). Luciferase assays of whole cell extracts were performed as previously described (Rothermel et al., 2000). All results were corrected for variations in transfection efficiency by normalization to expression of a cotransfected pCMV-LacZ plasmid.
A general note: In a reporter assay the amount or activity of a reporter protein is the signal.

Test [3] has as its target T1, calcineurin A (Mus musculus, UniProt P63328).
T1 construct: calcineurin A (amino acids 1-398) was translated in rabbit reticulocyte lysates; made in house; host or cells: calcineurin A: rabbit reticulocyte lysate (TNT coupled transcription/translation, Promega); GST-MCIP1: bacteria (pGEX-CS)
Kind of test: In vitro protein-protein interaction assay (GST pull-down). The format is binding. As to the method: In Vitro Protein-Protein Interaction Assays—GST and GST-MCIP1 fusion proteins were prepared as described previously (Grayson et al., 1998). [^35S]Methionine labeled CnA398, CnA342, and CnA266 were produced in the TNT coupled in vitro transcription/translation system (Promega). For in vitro binding assays, equivalent amounts of GST fusion proteins bound to glutathione were resuspended in 500 μl of binding buffer (20 mM Tris, pH 7.5, 100 mM KCl, 0.1 mM EDTA, 0.05% Nonidet P-40, 10% glycerol, and 1 mg/ml bovine serum albumin). [^35S]Methionine-labeled CnA proteins were added to the resuspended GST fusion proteins and incubated for 1 h. The beads were then spun down and washed three times in binding buffer. An equal volume of 2×SDS-PAGE loading buffer was added, and the suspension was boiled for 3 min. The bound proteins were then resolved on SDS-PAGE and visualized by autoradiography. ^35S-Labeled luciferase protein (Promega) was used as a negative control. For estimation of binding efficiency, 25% of the radiolabeled protein was loaded as an input control.

For test [4], the system named is constitutively active form of NFATc. The test can be described thus: IL-2-luc reporter driven by constitutively active NFAT in C2C12 cells. The format is cell-based, mouse.
Description: as §1, §2

The test system of test [5] is Gal4-VP16. The following applies: C2C12 cells.
Description: Tissue Culture, Cell Transfection, and Reporter Gene Assays—C2C12 myoblasts were grown in Dulbecco's modified Eagle's medium supplemented with 20% fetal bovine serum and antibiotics (100 units of penicillin and 100 g of streptomycin/ml). Myotube formation was induced by switching confluent cells to differentiation media (Dulbecco's modified Eagle's medium supplemented with 2% heat-inactivated horse serum) for 48-72 h. For transient transfection assays, C2C12 cells were plated 12 h before transfection in 12-well tissue culture dishes at 5×10^4 cells/well, and transfected with a total of 0.5 μg of plasmid DNA using LipofectAMINE Plus (Life Technologies, Inc.). Myoblasts were harvested 24 h after transfection. Myotubes were obtained by shifting cultures to differentiation media 24 h after transfection and harvesting 48 h later. To stimulate transfected cells, 1 μM ionomycin and 10 ng/ml phorbol myristate acetate (PMA) were added 4.5 h prior to harvesting. Luciferase assays of whole cell extracts were conducted as described previously (Yang et al., 1997).
Test [6] deals with MCIP1 mRNA. The test can be described thus: Northern blot of MCIP1 mRNA in C2C12 cells. Type of test: cell-based, mouse. As for the experimental part:
(§3) Tissue culture, cell transfection or infection, reporter gene assays: C2C12 myoblasts and myotubes were cultured as previously described (Grayson et al, 1995). Ionomycin ([…]) and cyclosporin A (50 to 200 nM) were added 4 hrs prior to harvesting the cells. When included, cyclohexamide (25 mM) was added 15 min prior to ionomycin. Transient transfection with plasmids or infection with recombinant, replication-defective adenoviruses, and luciferase assays were performed as previously reported (Chin et al, 1998; Rothermel et al., 2000; Wu et al., 1973).
(§4) RNA isolation and Northern blot analysis: Total RNA was prepared from mouse tissues or C2C12 cells using Tripure (Boehringer Mannheim, Inc.) following the manufacturer's protocol. Northern blot analysis was performed with […] of total RNA in each lane and probed in Ultrahyb (Ambion) with complementary sequences representing the 3′ UTR of MCIP1 (common to all known splicing variants), exon 1 of MCIP1, exon 4 of MCIP1, or ORF segments of MCIP2 or GAPDH cDNA. Probes were generated by PCR and labeled as described previously (Rothermel et al., 2000). Signals from Northern blots were detected on a Storm PhosphorImager (Molecular Dynamics) and quantified using ImageQuant (version 1.2).

Test [7] relates to MCIP2 mRNA. Kind of test: Northern blot of MCIP2 mRNA in C2C12 cells. Type of test: cell-based, mouse. As for the experimental part: as §3, §4
Test [8] concerns MCIP1 mRNA. The test can be described thus: Northern blot of MCIP1 mRNA in mouse heart and soleus. The format is in vivo. As for the experimental part: (§5) Animal experiments: Lines of transgenic mice in which the cc myosin heavy chain promoter is used to drive expression of a constitutively active form of calcineurin selectively in the heart were generated and described previously (Molkentin et al., 1998). Wildtype male C57B1/6 mice were injected intraperitoneally with 3, 5, 3′-triiodothyromine (T3) ([…]) or an equal volume of 0.9% saline once a day for ten days (Robbins & Swain, 1992). All experiments involving animals were conducted using IACRAC-approved protocols.
as §4

The test system of test [9] is MCIP2 mRNA. The test can be described thus: Northern blot of MCIP2 mRNA in mouse heart and soleus. The format is in vivo. As to the method:
as §5, §4

The subject of test [10] is cardiac hypertrophy. The test can be described thus: Hyperthyroid cardiac hypertrophy induced by T3 injection. Conditions: ten days i.p.; n=4. Type of test: in vivo, mouse. As to the method: as §5
Where [11] appears, read: C2C12, single culture dish, normalized to GAPDH mRNA.
Setting [12] is: Heart, i.p. once a day for ten days.
Setting [13] is: Soleus, pooled muscles from two animals.

Turning to “MCIP1: myocyte-enriched calcineurin interacting protein 1, product of human gene DSCR1; expressed from transfected plasmid or transgene”, the “percent increase in heart weight to body weight ratio” value in [1] (α-MHC-hMCIP1 transgenic mice, isoproterenol over seven days) is on record as 9.4±0.87%. In addition, the “effect on activation of the des-MEF2-luc reporter by CnA* alone or CnA* with CaMKIV” value in test [2] (C2C12 cells) is reported as “inhibited”. For the same compound, in test [2] (C2C12 cells, not shown), the “effect on calcineurin response of the MCIP1 (−874 to +30)-luciferase reporter” value is recorded as “represses this response”. The “effect on activation of IL-2 and Mb enhancer constructs by CnA*” value in test [2] (C2C12 myoblasts and myotubes) is recorded as “abolished”. The “inhibition of calcineurin induction of the IL-2-Luc reporter gene” value in test [2] (C2C12 myoblasts, pCMV-CnA*) is on record as “almost completely inhibit”. For the same compound, in test [2] (TATA-luc, IL-2-luc, Mb-luc, no CnA*), the “effect alone on activity of reporter constructs” value is “no effect”. Also, the “effect on PMA/ionophore activation of the myoglobin enhancer (Mb-luc)” value in test [2] (endogenous calcineurin, C2C12 myoblasts and myotubes) was “inhibited”. Moreover, the “binding to CnA(342)” value in [3] (lacks calmodulin and calcineurin B binding regions) is recorded as “did not disrupt the interaction”. For the same compound, the “binding to CnA(266)” value in test [3] (lacks carboxyl-terminal half of the catalytic domain) is on record as “no longer capable of binding”. In addition, the “effect on transcriptional activation mediated by NFAT (IL-2-luc)” value in test [4] is reported as “does not inhibit”. For the same compound, the “effect on Gal4-VP16 induction of UASg-TATA-luc” value in test [5] was “not affected”.

As to `CC(C)NCC(O)c1ccc(O)c(O)c1` (stereo not shown) [isoproterenol], the “percent increase in heart weight to body weight ratio” value in [1] (male wild-type mice, isoproterenol by osmotic minipump over seven days) is 22.8±1.95%.

Take `C[C@H](CCC(=O)O)C[C@H](C)C[C@H](C)C(=O)/C=C(\O)[C@H](C)C[C@H](C)C/C=C/[C@@H](C)[C@@H](O)[C@@H](C)[C@@H](O)C[C@@H]1CC[C@@](C)([C@H]2CC[C@@](C)([C@@H](C)O)O2)O1` [Ionomycin, ionomycin]: the “MC1P1 (fold change in mRNA), Response to Calcineurin Activation” value in test [6] (setting [11]) is 2.42 fold and 1.94 fold and 1.26 fold. In addition, in test [6] (C2C12 cells, cyclohexamide added 15 min prior), the “up-regulation of MCIP1 mRNA in the presence of cyclohexamide” value is approximately 10 fold. For the same compound, the “induction of MCIP1 mRNA” value in [6] (C2C12 myoblasts or myotubes, cyclohexamide absent) was 2 fold. Besides, the “increase of MCIP1 mRNA in the absence of cyclosporin” value in [6] (compared to cells treated with the highest dose of cyclosporin) was determined as 4 fold. In [7] (setting [11]), the “MC1P2 (fold change in mRNA), Response to Calcineurin Activation” value is 0.94 fold and 1.00 fold and 1.12 fold. Moreover, the “expression of MCIP2 mRNA” value in [7] (C2C12 cells) is given as “unaffected”.

On to `N[C@@H](Cc1cc(I)c(Oc2ccc(O)c(I)c2)c(I)c1)C(=O)O` [T3, 3,5, 3′-triiodothyromine], for which the “MC1P1 (fold change in mRNA), Response to Thyroid Hormone” value was 1.05 fold and 0.87 fold and 1.08 fold in test [8] (setting [12]); 0.78 fold and 1.05 fold and 1.24 fold in [8] (setting [13]). For the same compound, the “T3 Effect, MC1P1 (aggregate fold change, mean ±SE)” value in test [8] (heart and soleus) was determined as 1.01 ± 0.06 fold. Moreover, in test [8] (heart, ten days), the “expression of MCIP1 in hyperthyroid hearts” value is “unaltered”. Moreover, the “MC1P2 (fold change in mRNA), Response to Thyroid Hormone” value in [9] (setting [12]) was 1.59 fold and 1.81 fold and 1.71 fold; in test [9] (setting [13]) it was 1.72 fold and 2.21 fold and 1.62 fold. In addition, the “increase of MCIP2 transcript levels” value in test [9] (both heart and soleus skeletal muscles) is listed as “approximately 2 fold”. The “T3 Effect, MC1P2 (aggregate fold change, mean ±SE)” value in test [9] (heart and soleus) came to 1.78 ± 0.01 fold. In addition, the mean heart weight in test [10] came out at 180 mg. Moreover, the “mean heart weight/body weight ratio” value in test [10] was 7.2 mg/gm.
